How the values were obtained:
THP-1 (AML) cells = experiment: LSD1 CD11b Cellular Assay (flow cytometry); type: cell-based; conditions: Homo sapiens, 96 h; CD11b expression in THP-1 cells, 4 days incubation
Procedure: To analyze LSD1 inhibitor efficacy in cells, a CD11b flow cytometry assay was performed. LSD1 inhibition induces CD11b expression in THP-1 (AML) cells which can be measured by flow cytometry. […] LSD1 test compounds were serially diluted in DMSO. The dilutions were added to each well accordingly to a final concentration of 0.2% DMSO. The cells were incubated at 37 degrees Celsius in 5% CO2 for 4 days. 250 μL of each well was transferred to a well in a 96 well round bottom plate. The plate was centrifuged at 1200 rpm at 4 degrees Celsius in a Beckman Coulter Alegra 6KR centrifuge for 5 minutes. The media was removed leaving the cells at the bottom of the wells. The cells were washed in 100 μL cold HBSS (Hank's Balanced Salt Solution) plus 2% BSA (Bovine Serum Albumin) solution and centrifuged at 1200 rpm at 4 degrees Celsius for 5 minutes. The wash was removed. […] The cells were centrifuged and washed two times in 100 μl HBSS plus 2% BSA. After the final spin the cells were resuspended in 100 μL HBSS plus 2% BSA containing 1 ug/mL DAPI (4′,6-diamidino-2-phenylindole). The cells were then analyzed by flow cytometry in a BD FACSAria machine. Cells were analyzed for CD11b expression. The percent of CD11b expressing cells for each inhibitor concentration was used to determine an IC50 curve for each compound analyzed.

full-length human LSD1 = full-length human LSD1 (Homo sapiens (Human), UniProt O60341); experiment: In Vitro Enzyme Inhibition Assay - LSD-1 (TR-FRET); type: biochemical; conditions: 0.1 nM LSD1, H3K4me1-biotin peptide
Procedure: This assay determines the ability of a test compound to inhibit LSD1 demethylase activity.
The enzymatic assay of LSD1 activity is based on Time Resolved-Fluorescence Resonance Energy Transfer (TR-FRET) detection.
The ability of the compounds disclosed herein to inhibit LSD1 activity was quantified and the respective IC50 value was determined.

Structure (SMILES) | IC50 (THP-1 (AML) cells) | IC50 (full-length human LSD1)
Cc1ccc(-c2nc3ccn(CC4(F)CCNC4)c3cc2-c2ccc(C#N)cc2)cc1 (centres unmarked) [Example 9, 4-[1-[(3-fluoropyrroridin-3-yl)methyl]-5-(4-methylphenyl)pyrrolo[3,2-b]pyridin-6-yl]benzonitrile] | 100 to 1000 nM | < 100 nM
Cn1cc2cc(-c3ncc(N4CCC(N)CC4)nc3-c3ccc(C#N)c(F)c3)ccc2n1 [Example 49, 4-[6-(4-aminopiperidin-1-yl)-3-(2-methyl-2H-indazol-5-yl)pyrazin-2-yl]-2-fluorobenzonitrile] | < 100 nM | < 100 nM
CNC1CCN(c2cnc(-c3ccc4nn(C)cc4c3)c(-c3ccc(C#N)c(F)c3)n2)CC1 [Example 50, 2-fluoro-4-[3-(2-methyl-2H-indazol-5-yl)-6-[4-(methylamino)piperidin-1-yl]pyrazin-2-yl]benzonitrile] | < 100 nM | < 100 nM
Cn1ncc2cc(-c3ncc(N4CCC(N)CC4)nc3-c3ccc(C#N)c(F)c3)ccc21 [Example 51, 4-[6-(4-aminopiperidin-1-yl)-3-(1-methyl-1H-indazol-5-yl)pyrazin-2-yl]-2-fluorobenzonitrile] | < 100 nM | < 100 nM
Cn1cc2ccc(-c3ncc(N4CCC(N)CC4)nc3-c3ccc(C#N)c(F)c3)cc2n1 [Example 52, 4-[6-(4-aminopiperidin-1-yl)-3-(2-methyl-2H-indazol-6-yl)pyrazin-2-yl]-2-fluorobenzonitrile] | < 100 nM | < 100 nM
Cn1nnc2cc(-c3ncc(N4CCC(N)CC4)nc3-c3ccc(C#N)c(F)c3)ccc21 [Example 53, 4-[6-(4-aminopiperidin-1-yl)-3-(1-methyl-1H-1,2,3-benzotriazol-5-yl)pyrazin-2-yl]-2-fluorobenzonitrile] | < 100 nM | < 100 nM
Cn1nnc2cc(-c3ncc(N4CCC(N)CC4)nc3-c3ccc(C#N)c(F)c3)cnc21 [Example 54, 4-[6-(4-aminopiperidin-1-yl)-3-{3-methyl-3H-[1,2,3]triazolo[4,5-b]pyridin-6-yl}pyrazin-2-yl]-2-fluorobenzonitrile] | < 100 nM | < 100 nM
Cn1ccc2cc(-c3ncc(N4CCC(N)CC4)nc3-c3ccc(C#N)c(F)c3)cnc21 [Example 55, 4-[6-(4-aminopiperidin-1-yl)-3-{1-methyl-1H-pyrrolo[2,3-b]pyridin-5-yl}pyrazin-2-yl]-2-fluorobenzonitrile] | < 100 nM | < 100 nM
CNC1CCN(c2cnc(-c3ccc4c(c3)nnn4C)c(-c3ccc(C#N)c(F)c3)n2)CC1 [Example 56, 2-fluoro-4-{6-[4-(methylamino)piperidyl]-3-(1-methylbenzotriazol-5-yl)pyrazin-2-yl}benzenecarbonitrile] | < 100 nM | < 100 nM
CNC1CCN(c2cnc(-c3ccc(N(C)C)nc3)c(-c3ccc(C#N)c(F)c3)n2)CC1 [Example 57, 4-{3-[6-(dimethylamino)(3-pyridyl)]-6-[4-(methylamino)piperidyl]pyrazin-2-yl}-2-fluorobenzenecarbonitrile] | < 100 nM | < 100 nM
CNC1CCN(c2cnc(-c3cnc(N(C)C)nc3)c(-c3ccc(C#N)c(F)c3)n2)CC1 [Example 58, 4-{3-[2-(dimethylamino)pyrimidin-5-yl]-6-[4-(methylamino)piperidyl]pyrazin-2-yl}-2-fluorobenzenecarbonitrile] | < 100 nM | < 100 nM
CNC1CCN(c2cnc(-c3cnc4c(cnn4C)c3)c(-c3ccc(C#N)c(F)c3)n2)CC1 [Example 59, 2-fluoro-4-{6-[4-(methylamino)piperidyl]-3-(1-methylpyrazolo[5,4-b]pyridin-5-yl)pyrazin-2-yl}benzenecarbonitrile] | < 100 nM | < 100 nM
CN(C)C1CCN(c2cnc(-c3ccc4nn(C)cc4c3)c(-c3ccc(C#N)c(F)c3)n2)CC1 [Example 60, 4-{6-[4-(dimethylamino)piperidyl]-3-(2-methyl(2H-indazol-5-yl))pyrazin-2-yl}-2-fluorobenzenecarbonitrile] | < 100 nM | < 100 nM
CNC1CCN(c2cnc(-c3cc4ncn(C)c4cc3F)c(-c3ccc(C#N)c(F)c3)n2)CC1 [Example 61, 2-fluoro-4-[3-(6-fluoro-1-methylbenzimidazol-5-yl)-6-[4-(methylamino)piperidin-1-yl]pyrazin-2-yl]benzonitrile] | < 100 nM | < 100 nM
CNC1CCN(c2cnc(-c3cc4ncn(C)c4c(F)c3F)c(-c3ccc(C#N)c(F)c3)n2)CC1 [Example 62, 4-[3-(6,7-difluoro-1-methylbenzimidazol-5-yl)-6-[4-(methylamino)piperidin-1-yl]pyrazin-2-yl]-2-fluorobenzonitrile] | < 100 nM | < 100 nM
CNC1CCN(c2cnc(-c3ccc(OC)c(F)c3)c(-c3ccc(C#N)c(F)c3)n2)CC1 [Example 63] | < 100 nM | < 100 nM
CNC1CCN(c2cnc(C#CC3(O)CCCC3)c(-c3ccc(C#N)c(F)c3)n2)CC1 [Example 64, 2-fluoro-4-[3-[2-(1-hydroxycyclopentyl)ethynyl]-6-[4-(methylamino)piperidin-1-yl]pyrazin-2-yl]benzonitrile] | < 100 nM | < 100 nM
CNC1CCN(c2cnc(-c3ccc4c(c3)ncn4C)c(-c3ccc(C#N)c(F)c3)n2)CC1 [Example 65, 2-fluoro-4-[6-[4-(methylamino)piperidin-1-yl]-3-(1-methylbenzimidazol-5-yl)pyrazin-2-yl]benzonitrile] | < 100 nM | < 100 nM
CNC1CCN(c2cnc(C#CC(C)(C)O)c(-c3ccc(C#N)c(F)c3)n2)CC1 [Example 66, 2-fluoro-4-[3-(3-hydroxy-3-methylbut-1-ynyl)-6-[4-(methylamino)piperidin-1-yl]pyrazin-2-yl]benzonitrile] | < 100 nM | < 100 nM
CNC1CCN(c2cnc(-c3cc4ncn(C(C)C)c4cc3F)c(-c3ccc(C#N)c(F)c3)n2)CC1 [Example 67, 2-fluoro-4-[3-(6-fluoro-1-propan-2-ylbenzimidazol-5-yl)-6-[4-(methylamino)piperidin-1-yl]pyrazin-2-yl]benzonitrile] | < 100 nM | < 100 nM
CNC1CCN(c2cnc(-c3ccc4c(c3)ncn4C(C)C)c(-c3ccc(C#N)c(F)c3)n2)CC1 [Example 68, 2-fluoro-4-[6-[4-(methylamino)piperidin-1-yl]-3-(1-propan-2-ylbenzimidazol-5-yl)pyrazin-2-yl]benzonitrile] | < 100 nM | < 100 nM
CCn1cnc2cc(-c3ncc(N4CCC(NC)CC4)nc3-c3ccc(C#N)c(F)c3)c(F)cc21 [Example 69, 4-[3-(1-ethyl-6-fluorobenzimidazol-5-yl)-6-[4-(methylamino)piperidin-1-yl]pyrazin-2-yl]-2-fluorobenzonitrile] | < 100 nM | < 100 nM
CC(C)n1cnc2cc(-c3ncc(N4CCC(N)CC4)nc3-c3ccc(C#N)c(F)c3)c(F)cc21 [Example 70, 4-[6-(4-aminopiperidin-1-yl)-3-(6-fluoro-1-propan-2-ylbenzimidazol-5-yl)pyrazin-2-yl]-2-fluorobenzonitrile] | < 100 nM | < 100 nM
CCn1cnc2cc(-c3ncc(N4CCC(N)CC4)nc3-c3ccc(C#N)c(F)c3)c(F)cc21 [Example 71, 4-[6-(4-aminopiperidin-1-yl)-3-(1-ethyl-6-fluorobenzimidazol-5-yl)pyrazin-2-yl]-2-fluorobenzonitrile] | < 100 nM | < 100 nM
CC(C)n1cnc2cc(-c3ncc(N4CCC(N)CC4)nc3-c3ccc(C#N)c(F)c3)ccc21 [Example 72, 4-[6-(4-aminopiperidin-1-yl)-3-(1-propan-2-ylbenzimidazol-5-yl)pyrazin-2-yl]-2-fluorobenzonitrile] | < 100 nM | < 100 nM
CC(C)n1cnc2cc(-c3ncc(N4CCC(N)CC4)nc3-c3ccc(C#N)c(F)c3)c(F)c(F)c21 [Example 73, 4-[6-(4-aminopiperidin-1-yl)-3-(6,7-difluoro-1-propan-2-ylbenzimidazol-5-yl)pyrazin-2-yl]-2-fluorobenzonitrile] | < 100 nM | < 100 nM
CCn1cnc2cc(-c3ncc(N4CCC(N)CC4)nc3-c3ccc(C#N)c(F)c3)c(F)c(F)c21 [Example 74, 4-[6-(4-aminopiperidin-1-yl)-3-(1-ethyl-6,7-difluorobenzimidazol-5-yl)pyrazin-2-yl]-2-fluorobenzonitrile] | < 100 nM | < 100 nM
Cn1cnc2cc(-c3ncc(N4CCC(N)CC4)nc3-c3ccc(C#N)c(F)c3)c(F)c(F)c21 [Example 75, 4-[6-(4-aminopiperidin-1-yl)-3-(6,7-difluoro-1-methylbenzimidazol-5-yl)pyrazin-2-yl]-2-fluorobenzonitrile] | < 100 nM | < 100 nM

— patent US10543198B2 (Celgene Quanticel Research, Inc., priority 2014, dated 2020)
